From patent publication US12564586B2, “Kappa opiod receptor antagonists for treating pain-related sleep disorders” (ARIZONA BOARD OF REGENTS ON BEHALF OF THE UNIVERSITY OF …, priority 2020, dated 2026)
Entries after “also recorded” stand apart in the source; their conditions may differ.

Legend:
[1] = tested on: PSNL mice (chronic neuropathic pain model); assay: EEG/EMG sleep evaluation in the chronic pain model induced by partial sciatic nerve ligation (PSNL); format: in vivo, C57BL/6J mice; settings: for components of pain-related sleep disturbance (sleep time loss, fragmentation of sleep, daytime sleepiness): mouse model of chronic neuropathic pain, summary statement; for duration of non-REM sleep (sleep fragmentation): 6-hour intervals
sham surgery mice = assay: EEG/EMG sleep evaluation in sham surgery mice; format: in vivo, C57BL/6J mice
Experimental: Norbinaltorphimine (nor-BNI) was dissolved in 0.9% saline to 10 mg/kg just before injection. C57BL/6J mice received intraperitoneal injection of nor-BNI or vehicle (0.9% saline) 30 minutes before EEG/EMG record at 10 days after partial sciatic nerve ligation (PSNL) surgery (FIG. 2A). CYM-53093 was synthesized as described previously by Guerrero et al. It was dissolved in DMSO, tween and saline at a ratio of 1:1:8. C57BL/6J mice were implanted with a micro-osmotic pump under the skin at 8 days after PSNL surgery and received continuous infusion of CYM-53093 (10 mg/kg/day) or vehicle. Mice had surgical recovery for 1 day after pump implantation followed by EEG/EMG record for 5 days (FIG. 3A).
EEG/EMG recording head-mount implantation was done under 2-5% isoflurane anesthesia, mice were implanted with EEG and EMG electrodes for polysomnographic recordings (Pinnacle Technology, Oregon, USA) as described previously by Ito et al. Recording was done in awake animals after acclimatization using EEG/EMG mouse sleep equipment from Pinnacle Technology. The collected EEG/EMG data were analyzed by software (Sleepsign; Kissei Comtec, Japan). The vigilance of every 5-second epoch was automatically classified into three stages, i.e., wakefulness, REM and non-REM sleep, according to the standard criteria. As a final step, defined sleep-wake stages were examined visually and corrected, if necessary. The vigilance states were assessed as follows: 1) wakefulness was defined by a high EMG amplitude, low EEG amplitude; 2) REM sleep was defined by a low EMG amplitude, low EEG amplitude, and high 0 wave (5.0-10.0 Hz) activity; and 3) non-REM sleep was defined by a low EMG amplitude, high EEG amplitude, and high 8 wave (0.65-4.5 Hz) activity.
To investigate the effect of the long acting KOR antagonist, nor-BNI, on sleep disruption in preclinical model of chronic pain, the percentage of sleep time for 24 hours between the groups administered nor-BNI or vehicle 10 days after partial sciatic nerve ligation (PSNL), and baseline before PSNL surgery were compared (FIG. 2A). The sham groups were also evaluated in the same time series as PSNL groups. […] First, in order to evaluate the sleep-wake cycle of each group, the changes in the percentage of sleep time were examined every two hours. […] Secondly, the percentage of total sleep (FIG. 2D), non-REM sleep (FIG. 2E), and REM sleep (FIG. 2F) were evaluated and time in the light phase and dark phase were evaluated separately. […] Then, duration of awake and non-REM sleep was evaluated at 6-hour intervals (early and late light phase and early and late dark phase), and compared between baseline, sham/vehicle group, PSNL/vehicle group, sham/nor-BNI group, and PSNL/nor-BNI group.

PSNL mice = assay: von Frey test (paw withdrawal threshold, tactile allodynia); format: in vivo; settings: nor-BNI, naïve or injured (PSNL) animals
[2] = PSNL, continuous infusion of CYM-53093 10 mg/kg/day, 10 mg/kg/day
[3] = PSNL group, nor-BNI 10 mg/kg i.p.
[4] = sham animals, nor-BNI treated vs vehicle treated

SMILES | fragmentation of non-REM sleep ([1]; PSNL, continuous infusion of CYM-53093 10 mg/kg/day) | sleep time ([1]; PSNL, continuous infusion of CYM-53093 10 mg/kg/day by micro-osmotic pump, 5-day recording, 10 mg/kg/day) | power density of δ wave during non-REM sleep ([1]; PSNL, continuous infusion of CYM-53093 10 mg/kg/day, test day 4, 10 mg/kg/day) | REM sleep [1, 2] | duration of wakefulness at the first half of the dark phase [1, 2] | non-REM sleep [1, 2] | components of pain-related sleep disturbance (sleep time loss, fragmentation of sleep, daytime sleepiness) [1] | REM sleep time [1, 3] | duration of wakefulness during the early half of the dark phase [1, 3] | non-REM sleep time [1, 3] | percentage of total sleep ([1]; PSNL group, nor-BNI 10 mg/kg i.p. 10 days after PSNL, light phase) | duration of non-REM sleep (sleep fragmentation) [1, 3] | duration of non-REM sleep (sleep fragmentation) ([1]; PSNL group, nor-BNI 10 mg/kg i.p., listed as Nor-BNI) | sleep time (percentage of sleep time every two hours) ([1]; PSNL group, nor-BNI 10 mg/kg i.p., vs baseline before PSNL surgery) | power spectrum during non-REM sleep ([1]; nor-BNI 10 mg/kg i.p.) | percentage of non-REM sleep (sham surgery mice; [4]) | percentage of total sleep (sham surgery mice; [4]) | sleep time (percentage of sleep time every two hours) (sham surgery mice; sham groups, nor-BNI 10 mg/kg i.p.) | REM sleep time (sham surgery mice; sham mice, nor-BNI 10 mg/kg i.p.) | evoked (mechanical/tactile) allodynia, paw withdrawal threshold (PSNL mice)
CCc1cc(F)c2nc(N3CCC(NC4CCOCC4)CC3)c(-c3nc(C)no3)c(C)c2c1 [CYM53093] | normalized fragmentation of non-REM sleep | normalized the reduction of sleep time up until day 4; also recorded: normalized the reduction of sleep time and the effect lasted at least until day 4 | no change in the power density; also recorded: did not change | did not improve REM sleep | improved non-REM sleep, wakefulness during the first part of the dark phase; also recorded: improved short duration of wakefulness at the first half of the dark phase | improved non-REM sleep; also recorded: mainly influenced non-REM sleep | improved several important components of pain-related sleep disturbance |  |  |  |  |  |  |  |  |  |  |  |  | 
Oc1ccc2c3c1O[C@H]1c4[nH]c5c(c4C[C@@]4(O)[C@@H](C2)N(CC2CC2)CC[C@]314)C[C@@]1(O)[C@H]2Cc3ccc(O)c4c3[C@@]1(CCN2CC1CC1)[C@H]5O4 [nor-BNI, Norbinaltorphimine] |  |  |  |  |  |  | improved several important components of pain-related sleep disturbance | did not improve REM sleep time | improved the inability to stay awake during the dark (active) time of the day; also recorded: tended to extend this duration somewhat, it was not significant | increased non-REM sleep time | 71.4±1.3% | improved sleep fragmentation in PSNL during non-REM sleep | improved this fragmented sleep by PSNL | normalized the deficit of sleep time of the partial sciatic nerve ligation (PSNL) group to the same as baseline; also recorded: normalized the reduction of sleep time of the PSNL group almost to the same level as baseline | did not change the power spectrum; also recorded: unchanged in both groups | no significant difference in the percentage of total sleep and non-REM sleep | no significant difference in the percentage of total sleep and non-REM sleep | had no effect in the sham surgery group; also recorded: had no significant effect on sleep time | significantly reduced REM sleep time in sham mice | did not alter mechanical allodynia in naïve or injured animals; also recorded: did not influence the evoked allodynia
